Here are results for 3 molecules from patent US20230331694A1, “FAP-ACTIVATED COMPOUNDS FOR TREATMENT OF CANCER” (The Johns Hopkins University, priority 2020, published 2023).

The term Kp denotes tissue or fluid exposure divided by exposure in the circulation. As usually defined, the bioavailability is the share of a dose that reaches the circulation, judged against a reference dose that is usually intravenous. Lower therefore signals little systemic uptake. A word on the half-life: it is the time needed for the level to fall by half in the phase considered. High values mean slow decline, low ones rapid decline. The term Cmax denotes the highest concentration seen after dosing. A word on the IC50: it is the concentration that inhibits the measured activity by half. A low value points to higher potency.

Some results are limits rather than exact numbers.

In data set [1] the target is T1, FAP (Homo sapiens, UniProt Q12884).
T1 sequence (Q12884 1-760): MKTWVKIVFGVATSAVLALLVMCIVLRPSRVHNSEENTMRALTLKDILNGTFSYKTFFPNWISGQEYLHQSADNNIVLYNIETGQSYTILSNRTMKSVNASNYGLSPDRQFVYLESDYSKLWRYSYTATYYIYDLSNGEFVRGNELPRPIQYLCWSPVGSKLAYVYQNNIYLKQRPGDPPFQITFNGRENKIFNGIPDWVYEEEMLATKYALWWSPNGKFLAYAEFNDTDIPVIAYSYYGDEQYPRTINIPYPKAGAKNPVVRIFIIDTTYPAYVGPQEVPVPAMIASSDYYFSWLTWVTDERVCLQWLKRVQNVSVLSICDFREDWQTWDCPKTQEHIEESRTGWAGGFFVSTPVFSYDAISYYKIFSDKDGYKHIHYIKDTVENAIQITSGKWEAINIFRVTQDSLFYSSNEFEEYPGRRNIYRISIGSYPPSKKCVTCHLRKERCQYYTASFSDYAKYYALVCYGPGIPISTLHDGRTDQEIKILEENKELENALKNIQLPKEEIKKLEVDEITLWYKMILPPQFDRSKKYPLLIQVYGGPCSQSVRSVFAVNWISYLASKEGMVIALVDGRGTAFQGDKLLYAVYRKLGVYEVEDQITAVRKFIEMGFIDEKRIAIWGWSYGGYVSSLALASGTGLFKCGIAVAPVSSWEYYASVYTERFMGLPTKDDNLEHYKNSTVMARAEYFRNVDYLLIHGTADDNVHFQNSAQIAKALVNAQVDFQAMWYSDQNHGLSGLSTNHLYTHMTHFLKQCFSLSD
Briefly: FAP-dependent activation of Compound 4 in vitro (HPLC). In kind it is biochemical. More on the design: purchased R&D Systems. The note with it: buffer +/- rhFAP (20 nM) overnight (~16 hrs), 37° C., HPLC (FIG. 10). On the procedure: Compound 4 was incubated in buffer +/- rhFAP (20 nM) overnight (~16 hrs), mixing at 37° C. Aliquots taken at indicated time points and the presence of Compound 4 (prodrug) and Tasquinimod (TasQ) were quantified via HPLC.

Data set [2] relates to SkCaP-1 (human PCa xenograft). The data set is described as follows: SkCaP-1 human PCa xenograft in NSG mice. The note with it: 30 mg/kg i.p. daily vs DMSO control (FIG. 4). In kind it is in vivo. On the procedure:
Intact male NSG mice (3-4 per group) bearing SkCaP-1 (human PCa xenograft) were treated with 30 mg/kg Compound 4 (a tasquinimod compound) i.p. daily, or a control (DMSO).
(In general: Xenograft models place foreign cells or tissue in a host animal.)

The target of data set [3] is T1, FAP. Briefly: LC-MS assay of FAP-dependent production of niclosamide from prodrug. In kind it is biochemical. Further details: purchased R&D Systems. On the procedure:
(§1) In vitro Characterization of Enzymatic Activation Kinetics and FAP-specific Cellular UptakelCytotoxicity: Kinetics of compound activation by FAP is performed as previously described (Aggarwal et al. Biochemistry 47, 1076-1086 (2008); Denmeade et al. Sci TranslMed 4, 140ra186 (2012)). Briefly, increasing concentrations of the test compound (0-10 µM) are incubated with rhFAP, rhDPPIV, or rhPREP [20 nM] (R&D Systems) at 37° C. while shaking. Aliquots are taken to determine concentrations of the test compound and active drug compound at time points ranging from 0-24 hrs using the LCMS method described above in Example 4. Kinetic constants (Km and kcat) are calculated on the basis of the rate of hydrolysis (v) during the linear phase using Michaelis-Menten plots (v vs [S]) with nonlinear regression analysis. Cellular uptake in the presence or absence of rhFAP is determined in cell lysates using the same methodology. Cytotoxicity is determined via MTT in the presence or absence of rhFAP and/or a FAP-specific inhibitor (Jansen et al. J Med Chem 57, 3053-3074 (2014).

For a further data set, the target named is T2, PREP (Homo sapiens, UniProt P48147).
T2 construct: purchased R&D Systems
T2 sequence (P48147 1-710): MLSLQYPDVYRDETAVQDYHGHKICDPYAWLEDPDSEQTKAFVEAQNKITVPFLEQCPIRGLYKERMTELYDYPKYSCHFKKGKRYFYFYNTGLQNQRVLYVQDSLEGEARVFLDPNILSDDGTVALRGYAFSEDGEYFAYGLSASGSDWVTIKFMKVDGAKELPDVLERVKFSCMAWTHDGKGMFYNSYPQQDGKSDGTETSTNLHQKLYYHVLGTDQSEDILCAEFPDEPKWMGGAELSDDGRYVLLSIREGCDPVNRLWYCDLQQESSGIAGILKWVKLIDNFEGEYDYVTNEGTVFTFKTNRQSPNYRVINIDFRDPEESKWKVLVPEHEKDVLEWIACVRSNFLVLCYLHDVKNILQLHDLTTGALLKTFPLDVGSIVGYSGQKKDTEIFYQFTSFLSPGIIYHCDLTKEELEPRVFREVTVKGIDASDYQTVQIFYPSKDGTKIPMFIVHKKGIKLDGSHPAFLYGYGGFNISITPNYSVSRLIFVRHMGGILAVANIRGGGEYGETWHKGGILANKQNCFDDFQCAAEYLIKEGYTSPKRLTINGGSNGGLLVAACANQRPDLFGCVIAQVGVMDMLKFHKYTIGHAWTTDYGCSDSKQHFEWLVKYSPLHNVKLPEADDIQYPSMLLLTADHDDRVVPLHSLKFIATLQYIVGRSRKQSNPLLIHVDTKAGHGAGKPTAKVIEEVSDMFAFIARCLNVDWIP
The data set is described as follows: LC-MS assay of niclosamide production from prodrug with PREP. In kind it is biochemical. As to conditions: 24 hrs. On the procedure: as §1

For the next data set, the system named is Myc-CaP-CR tumors. Briefly: Abiraterone-resistant CRPC tumor model (Myc-CaP-CR) in vivo. On the procedure:
Animals were treated with either abiraterone at 10 mg/kg by daily oral gavage alone or together with Compound 1 at 50 mg/kg IV on d0 and d4. Toxicity was monitored by measuring body weight and body score (i.e., appearance, lethargy, etc.).

In another data set the test system is CWR22-H tumors. The data set is described as follows: Castration-resistant CWR22-H tumors in castrated male NSG mice. In kind it is in vivo. On the procedure: Castrated male NSG mice were inoculated with castration-resistant CWR22-H tumors in 50% Matrigel. When tumors reached ~0.2 cc, treatment with Compound 1 (40 mg/kg) via intraperitoneal (I.P.) injection was initiated. Tumor volumes and body weights were monitored 2x/wk. […] Treatment was well-tolerated as documented by weight loss of <20%.

For data set [4], the target named is T1, FAP. Briefly: Kinetics of FAP-dependent activation in vitro +/- BSA (HPLC). In kind it is biochemical. On the procedure:
Compound 1 was incubated in Buffer (50 mM Tris-HCl, pH 7.4; 150 mM NaCI) +/-0.4% BSA in glass vials, mixing at 37° C. Aliquots were taken at indicated time points and the presence of Compound 1 (prodrug) and Niclosamide (active compound) were quantified via HPLC.

Another data set concerns LNCaP cells. Briefly: Seahorse XF Cell Mito Stress Test. The class given is cell-based. On the procedure:
A mitochondrial stress test assay was performed using the Agilent Seahorse XF Cell Mito Stress Test Kit (catalog no. 103015-100), a widely-used assay for assessing mitochondrial function. Compound 1 or niclosamide (1 µM) was incubated overnight at 37° C. shaking, with or without FAP (20 nM) in Seahorse Media. This mixture was added to LNCaP cells (60 k cells) the next day, immediately prior to starting the assay (0.5 µM final concentration).

The nature of data set [5]: Pharmacokinetics: plasma, liver, kidney, smooth muscle levels after Compound 1 dosing.
Protocol: (§2) Column: Luna 2.5u C18, 100 mm ×2.5 mm (Phenomenex 00D-4446-B0). Mobile phase: A = 0.5% acetonitrile/H2O/0.1% formic acid; B= 95% acetonitrile/H2O/0.1% formic acid; Flow = 150 µL/min.
A further data set deals with T3, DPPIV (Homo sapiens, UniProt P27487).
T3 construct: purchased R&D Systems
Briefly: LC-MS assay of niclosamide production from prodrug with DPPIV. The class given is biochemical. As to conditions: 24 hrs. On the procedure:
as §1

Data set [6] has as its system mammalian cells such as mCRPCs, TAMs, MSCs, and CAFs. As to conditions: all cells, including mammalian cells; read-out: LC50 (the source's name); cited from earlier work.
For data set [7] the following is noted: in vivo, 40 mg/kg.
Protocol: as §2
The subject of data set [8] is panel of benign and malignant cells. Briefly: MTT assay, potency of niclosamide against a panel of cells. In kind it is cell-based. The note with it: all cells tested (FIG. 3A). An excerpt:
FIGS. 3A-3D show characterization data for a compound disclosed herein (Compound 1).

T3 sequence (P27487 whole entry): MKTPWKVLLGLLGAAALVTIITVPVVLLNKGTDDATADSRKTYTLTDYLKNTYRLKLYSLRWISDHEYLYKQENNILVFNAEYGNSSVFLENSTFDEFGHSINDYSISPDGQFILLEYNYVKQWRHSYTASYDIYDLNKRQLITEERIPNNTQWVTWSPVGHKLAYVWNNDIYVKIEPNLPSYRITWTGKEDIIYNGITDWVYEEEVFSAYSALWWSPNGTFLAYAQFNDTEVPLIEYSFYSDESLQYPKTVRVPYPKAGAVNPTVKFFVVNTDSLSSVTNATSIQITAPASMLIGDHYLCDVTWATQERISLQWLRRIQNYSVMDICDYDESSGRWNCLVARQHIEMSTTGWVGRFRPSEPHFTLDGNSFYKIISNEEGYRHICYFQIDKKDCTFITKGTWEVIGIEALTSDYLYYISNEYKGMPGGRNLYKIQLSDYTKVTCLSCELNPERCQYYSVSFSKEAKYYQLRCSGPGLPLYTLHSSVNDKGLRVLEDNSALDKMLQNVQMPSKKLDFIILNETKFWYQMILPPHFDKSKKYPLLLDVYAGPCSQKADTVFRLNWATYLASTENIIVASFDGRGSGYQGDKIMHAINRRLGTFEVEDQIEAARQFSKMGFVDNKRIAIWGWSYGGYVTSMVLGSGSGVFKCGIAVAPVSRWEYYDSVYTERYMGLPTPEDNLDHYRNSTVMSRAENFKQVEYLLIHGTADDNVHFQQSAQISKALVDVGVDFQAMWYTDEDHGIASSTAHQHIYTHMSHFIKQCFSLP

Turning to `COc1cccc2c1c(OCc1ccc(NC(=O)C3CC(F)(F)CN3C(=O)CNC(=O)c3ccnc4ccccc34)cc1)c(C(=O)N(C)c1ccc(C(F)(F)F)cc1)c(=O)n2C` (stereo not drawn) [Compound 4], the “FAP-dependent activation to tasquinimod” value on FAP [1] is given as “confirm FAP-dependent activation”. In addition, the “tumor growth (tumor volume)” value in [2] is “decreases tumor growth compared to the control”.
For `O=C(Nc1ccc([N+](=O)[O-])cc1Cl)c1cc(Cl)ccc1OCc1ccc(NC(=O)C2CC(F)(F)CN2C(=O)CNC(=O)c2ccnc3ccccc23)cc1` (stereo not drawn) [Compound 1], the “production of active niclosamide” value is given as “no production observed” on FAP [3] (absence of enzyme, 24 hrs); “no production observed” on PREP; “no production observed” at DPPIV. The “increase in active niclosamide” value on FAP [3] (with FAP, over 24 hrs (FIG. 3B)) is reported as ~ 20 fold. Moreover, the “toxicity (body weight and body score)” value with Myc-CaP-CR tumors (Compound 1 50 mg/kg IV d0 and d4 together with abiraterone 10 mg/kg (FIG. 3D)) is given as “no evidence of toxicity”. For the same molecule, the anti-tumor efficacy result in the data set with Myc-CaP-CR tumors (Compound 1 50 mg/kg IV d0 and d4 together with abiraterone 10 mg/kg daily oral gavage (FIG. 3C)) is “significant anti-tumor efficacy”. The molecule also yielded a weight loss in the data set on CWR22-H tumors (40 mg/kg daily IP) of less than 20%. Moreover, the “anti-tumor activity (tumor volume)” value with CWR22-H tumors (40 mg/kg daily IP (FIG. 8)) is listed as “Anti-tumor activity was observed”. In addition, the “effect of BSA on production of the active compound” value at FAP [4] (0.4% BSA) is reported as “BSA inhibits production of the active compound”. Moreover, the “prodrug and active compound over time” value on FAP [4] (buffer pH 7.4, 37° C., HPLC (FIG. 5)) is “time-dependent increase in the active compound and concomitant decrease in the prodrug over time”. Besides, the “baseline ECAR” value in the data set on LNCaP cells (activated by FAP) is recorded as “already at maximum”. In addition, the “oxygen consumption rate (OCR), mitochondrial uncoupling” value in the data set with LNCaP cells (activated by FAP (20 nM) overnight, 0.5 µM final (FIG. 6)) is “uncouples mitochondria”. Moreover, the “extracellular acidification rate (ECAR) on oligomycin addition” value in the data set with LNCaP cells (activated by FAP (FIG. 7)) was “does not change with the addition of oligomycin”. The non-mitochondrial respiration entry with LNCaP cells (activated by FAP, after rotenone and antimycin A) is reported as “no change in non-mitochondrial respiration”. In data set [5] (40 mg/kg IP), the “plasma level as % of the IV dose” value is given as ~ 50%. Further, the “kidney level as % of the IV dose” value in [5] (40 mg/kg IP, at ~4 hrs) was ~ 30%. Also, the “liver level as % of the IV dose” value in data set [5] (40 mg/kg IP, at ~4 hrs) is ~ 50%. For the same molecule, the “converted to niclosamide (kidney)” value in data set [5] (Compound 1 administered IV or IP) is on record as less than 10%. Moreover, the “stability of the prodrug as a systemic therapy” value in data set [5] (in vivo, from tissue niclosamide levels) was “good stability”. For the same molecule, the concentration at 1 hr is approximately 50 µM in [5] (kidney, intravenous, 40 mg/kg); approximately 1 µM in data set [5] (kidney, oral, 40 mg/kg); approximately 100 µM in data set [5] (liver, intravenous, 40 mg/kg); approximately 10 µM in data set [5] (liver, oral, 40 mg/kg). Further, the partition ratio (Kp) at 1 hr in data set [5] (liver, intravenous, 40 mg/kg) lay within 10 to 15. Also, the bioavailability in [5] (liver, po, 40 mg/kg) is approximately 10%; in [5] (plasma, po, 40 mg/kg), 5 to 10%. This molecule gave a half-life in data set [5] (plasma, intravenous, 40 mg/kg) of 3 to 4 h. The Cmax in [5] (plasma, iv, 40 mg/kg) is approximately 7 µM; in data set [5] (plasma, po, 40 mg/kg), approximately 0.4 µM.
Regarding `O=C(Nc1ccc([N+](=O)[O-])cc1Cl)c1cc(Cl)ccc1O` [Niclosamide, niclosamide], the CC50 in [6] was less than 1000 nM. Also, in data set [7], the “niclosamide in liver as % of Compound 1 concentrations” value is on record as 25-50%, the “niclosamide in plasma as % of Compound 1 dose” value was less than 10%, the “niclosamide in smooth muscle as % based on liver concentrations” value was less than 1% and the “niclosamide in smooth muscle as % of administered dose based on plasma concentrations” value is 5-10%. Moreover, in [7], the “niclosamide level in plasma” value is reported as less than 1 µM and the “niclosamide level in smooth muscle” value is listed as less than 1 µM. The IC50 in [8] is less than 500 nM.
